EC50 data for 19 compounds are collected here from patent US9938301B2, “Dihydropyrimido fused ring derivative as HBV inhibitor” (QILU PHARMACEUTICAL CO., LTD., priority 2014, dated 2018).

One experiment deals with HBV DNA in HepG2.2.15 cells. The experiment in a line: HBV in vitro dot-blot hybridization test. The format is cell-based, Hepatitis B virus. To be noted: Hepatitis B virus, HepG2.2.15, dot-blot hybridization assay, read-out: Concentration for 50% inhibition of HBV (EC50)value. How it is done:
• 1. Purpose of the test: • The content of HBV DNA in HepG2.2.15 cells was detected by dot-blot hybridization test to evaluate an inhibitory action of the compound on HBV with an EC50 value as an indicator. • 2. Experimental materials: • 2.1 Cell lines: HepG2.2.15 Cells • HepG2.2.15 cell culture media (DMEM/F12, Invitrogen-11330057; 10% serum Invitrogen-10099141; 100 units/mL Penicillin and 10 μg/mL Streptomycin, Invitrogen-15140122; 1% non-essential amino acid, Invitrogen-11140076; 2 mM L-GLUTAMINE, Invitrogen-25030081; 300 µg/ml Geneticin, Invitrogen-10131027 • 2.2 Reagents: • Trypsin (I Invitrogen-25300062) • DPBS (Hyclone-SH30028.01B) • DMSO (Sigma-D2650-100ML) • 96-well cell-culture plate (Corning-3599) • CO2 incubator (HERA-CELL-240) • 20×SSC (Bio-serve Co. Ltd) • Tris-HCl (Aldirch-154563-1KG) • NaOH (Sinopharm 10019718) • NaCl (Sinopharm 10019308) • Hybridization solution (Major BioTech Co. Ltd, IMMUNE GOLD-HYB-500) • DIG Wash and Block Buffer set (Roche-11585762001) • Anti-digoxigenin-AP, Fab fragments from sheep (Roche-11093274910) • 2.3 Materials and Instruments: • Positively-Charged Nylon Membrane (GE-RPN2250B) • Transfer Membrane Instrument (Bio-Rad, 170-6545) • Hybridization Oven (HL-2000 Hybrilinker) • 3. Testing steps and Methods: • 3.1 HepG2.2.15 cells (4×10^4 cells/well) were planted into a 96-well plate, and at 37° C., 5% CO2 cultured overnight. • 3.2 On Day 2, the compounds were diluted in totally 6 concentrations with a dilution gradient of five times. The compounds at different concentrations were added into the culture wells in duplicate. The final concentration of DMSO in the culture media was 1%. 1 μM GLS4 was used as 100% inhibition control; 1% DMSO as 0% inhibition control. • 3.3 On Day 5, replacing with the fresh culture media containing the compound was performed. • 3.4 On Day 8 and Day 9, the culture media in the culture wells was removed, and the cells were harvested for dot-blot hybridization. • The lysate was added into a culture well, and at 37° C. incubating for half an hour to disintegrate cells; the supernatant was obtained by centrifugation and transferred into a new microplate; a denaturation solution was added, after sufficient mixing the denatured sample was transferred and imprinted onto a Nylon membrane, the nucleic acid was fixed onto the membrane by UV cross-linking. • Pre-hybridization: the membrane was incubated at 60° C. in a hybridization solution for 1 hour. • Hybridization: heating the denatured digoxin-labelled HBV DNA probe and incubating at 60° C. overnight. • Membrane Washing: performing high strigency washing twice, low strigency washing for 3 times. • Blocking: incubating the membrane at room temperature in a blocking solution for 30-60 minutes. • Hybridization: diluting the Antibody Solution with the blocking solution, in which the membrane was placed and incubated at room temperature for 30-60 minutes. • Developing: washing the membrane in a Detection Buffer for 5 minutes, followed by adding a developing solution, pressing and exposing. • The photos was saved in tiff format, and a gray value of the dot was quantified with quantity one software. • 3.5 Data Analysis: • 3.5.1 The inhibition percentage was calculated: % Inh.=[1−(sample dot gray value−1 μM GLS4 dot gray value 1)/(DMSO control dot gray value−1 μM GLS4 dot gray value 1)]×100. • 3.5.2 Calculating EC50: the concentration of the compound for 50% inhibition of HBV (EC50) was calculated by using GraphPad Prism Software. • 4.
`CCOC(=O)C1=C2CN(C(C)=O)CCN2C(c2nccs2)=NC1c1ccc(F)cc1Br` (racemic) [Example 86]: the EC50 lay within 500 to 1000 nM.
Consider `CCOC(=O)C1=C2CN(S(C)(=O)=O)CCN2C(c2nccs2)=NC1c1ccc(F)cc1Br` (racemic) [Example 87], for which the EC50 was in the range of 500 to 1000 nM.
`CCOC(=O)C1=C2CN(CC(N)=O)CCN2C(c2nccs2)=NC1c1ccc(F)cc1Br` (racemic) [Example 95]: the EC50 was 100 to 500 nM.
Turning to `CCOC(=O)C1=C2CN(C)CCN2C(c2nccs2)=NC1c1ccc(F)cc1Br` (racemic) [Example 96], the EC50 is 1000 to 5000 nM.
Take `CCOC(=O)C1=C2CN(Cc3ccc(OC)cc3)CCN2C(c2nccs2)=NC1c1ccc(F)cc1Br` (racemic) [Example 97]: the EC50 was in the range of 1000 to 5000 nM.
As to `CCOC(=O)C1=C2CNC(=O)CN2C(c2nccs2)=NC1c1ccc(F)cc1Br` (racemic) [Example 104], the EC50 lay within 1000 to 5000 nM.
As for `CCOC(=O)C1=C2CN(C)C(=O)CN2C(c2nccs2)=NC1c1ccc(F)cc1Br` (racemic) [Example 105], the EC50 fell in the range of 500 to 1000 nM.
For the compound `CCOC(=O)C1=C2CCOC(=O)N2C(c2nccs2)=NC1c1ccc(F)cc1Br` (racemic) [Example 107], the EC50 is 100 to 500 nM.
With `CCOC(=O)C1=C2CCCC(=O)N2C(c2nccs2)=N[C@H]1c1ccc(F)cc1Br` (racemic) [Example 108], the EC50 fell in the range of 1000 to 5000 nM.
Still for that read-out and setting: for `CCOC(=O)C1=C2CCCCN2C(c2nccs2)=NC1c1ccc(F)cc1Cl` (racemic) [Example 109] the value was 1000 to 5000 nM.
`CCOC(=O)C1=C2COCCN2C(c2nccs2)=NC1c1ccc(F)cc1Br` (racemic) [Example 110]: the EC50 was 1000 to 5000 nM.
On to `CCOC(=O)C1=C2CCOC(=O)N2C(c2nccs2)=NC1c1ccc(F)cc1Cl` (racemic) [Example 111], for which the EC50 is 1000 to 5000 nM.
For the compound `CCOC(=O)C1=C2CCN2C(c2nccs2)=NC1c1ccc(F)cc1Br` (racemic) [Example 112], the EC50 lay within 1000 to 5000 nM.
The same measure, in the same setting: for `CCOC(=O)C1=C2CCCN2C(c2nccs2)=N[C@H]1c1ccc(F)cc1Br` [Example 5] the value was 100 to 500 nM; for `CCOC(=O)C1=C2C[C@@H](CO)CN2C(c2nccs2)=N[C@H]1c1ccc(F)cc1Br` [Example 6], less than 100 nM.
Regarding `CCOC(=O)C1=C2C[C@H](CO)CN2C(c2nccs2)=N[C@H]1c1ccc(F)cc1Br` [Example 7], the EC50 was 100 to 500 nM.
Turning to `CCOC(=O)C1=C2C[C@@H](CC(=O)O)CN2C(c2nccs2)=N[C@H]1c1ccc(F)cc1Br` [Example 13], the EC50 was in the range of 100 to 500 nM.
In the case of `CCOC(=O)C1=C2C[C@H](CC(=O)O)CN2C(c2nccs2)=N[C@H]1c1ccc(F)cc1Br` [Example 14], the EC50 fell in the range of 500 to 1000 nM.
In the case of `CCOC(=O)C1=C2C[C@H](CN3CCOCC3)CN2C(c2nccs2)=N[C@H]1c1ccc(F)cc1Br` [Example 15], the EC50 was in the range of 100 to 500 nM.

The same experiment, now with this note: Hepatitis B virus, HepG2.2.15, summary list of target compounds, Examples 1-165 (same as Table 2), read-out: BIOACTIVITY (inhibitory actions on HBV DNA, EC50).
Turning to `CCOC(=O)C1=C2CN(C(C)=O)CCN2C(c2nccs2)=NC1c1ccc(F)cc1Br` (racemic) [Example 86], the EC50 is 500 to 1000 nM.
On to `CCOC(=O)C1=C2CN(S(C)(=O)=O)CCN2C(c2nccs2)=NC1c1ccc(F)cc1Br` (racemic) [Example 87], for which the EC50 is 500 to 1000 nM.
Turning to `CCOC(=O)C1=C2CN(CC(N)=O)CCN2C(c2nccs2)=NC1c1ccc(F)cc1Br` (racemic) [Example 95], the EC50 was 100 to 500 nM.
For the compound `CCOC(=O)C1=C2CN(C)CCN2C(c2nccs2)=NC1c1ccc(F)cc1Br` (racemic) [Example 96], the EC50 is 1000 to 5000 nM.
Still for that read-out and setting: for `CCOC(=O)C1=C2CN(Cc3ccc(OC)cc3)CCN2C(c2nccs2)=NC1c1ccc(F)cc1Br` (racemic) [Example 97] the value was 1000 to 5000 nM; for `CCOC(=O)C1=C2CNC(=O)CN2C(c2nccs2)=NC1c1ccc(F)cc1Br` (racemic) [Example 104], 1000 to 5000 nM; for `CCOC(=O)C1=C2CN(C)C(=O)CN2C(c2nccs2)=NC1c1ccc(F)cc1Br` (racemic) [Example 105], 500 to 1000 nM.
On to `CCOC(=O)C1=C2CCOC(=O)N2C(c2nccs2)=NC1c1ccc(F)cc1Br` (racemic) [Example 107], for which the EC50 was in the range of 100 to 500 nM.
Consider `CCOC(=O)C1=C2CCCC(=O)N2C(c2nccs2)=N[C@H]1c1ccc(F)cc1Br` (racemic) [Example 108], for which the EC50 fell in the range of 1000 to 5000 nM.
In the case of `CCOC(=O)C1=C2CCCCN2C(c2nccs2)=NC1c1ccc(F)cc1Cl` (racemic) [Example 109], the EC50 is 1000 to 5000 nM.
As to `CCOC(=O)C1=C2COCCN2C(c2nccs2)=NC1c1ccc(F)cc1Br` (racemic) [Example 110], the EC50 was 1000 to 5000 nM.
Regarding `CCOC(=O)C1=C2CCOC(=O)N2C(c2nccs2)=NC1c1ccc(F)cc1Cl` (racemic) [Example 111], the EC50 lay within 1000 to 5000 nM.
The same measure, in the same setting: for `CCOC(=O)C1=C2CCN2C(c2nccs2)=NC1c1ccc(F)cc1Br` (racemic) [Example 112] the value was 1000 to 5000 nM; for `CCOC(=O)C1=C2CCCN2C(c2nccs2)=N[C@H]1c1ccc(F)cc1Br` [Example 5], 100 to 500 nM.
Regarding `CCOC(=O)C1=C2C[C@@H](CO)CN2C(c2nccs2)=N[C@H]1c1ccc(F)cc1Br` [Example 6], the EC50 is less than 100 nM.
For the compound `CCOC(=O)C1=C2C[C@H](CO)CN2C(c2nccs2)=N[C@H]1c1ccc(F)cc1Br` [Example 7], the EC50 lay in the range of 100 to 500 nM.
Still for that read-out and setting: for `CCOC(=O)C1=C2C[C@@H](CC(=O)O)CN2C(c2nccs2)=N[C@H]1c1ccc(F)cc1Br` [Example 13] the value was 100 to 500 nM; for `CCOC(=O)C1=C2C[C@H](CC(=O)O)CN2C(c2nccs2)=N[C@H]1c1ccc(F)cc1Br` [Example 14], 500 to 1000 nM; for `CCOC(=O)C1=C2C[C@H](CN3CCOCC3)CN2C(c2nccs2)=N[C@H]1c1ccc(F)cc1Br` [Example 15], 100 to 500 nM.
